Results as given in patent US7786145B2, “Cyanoguanidine-based azole compounds useful as malonyl-CoA decarboxylase inhibitors” (Chugai Seiyaku Kabushiki Kaisha, priority 2003, dated 2010).

Experiments:
[1] = biological target: T1, hMCD (malonyl-CoA decarboxylase) (Homo sapiens, UniProt O95822); assay: In Vitro MCD Inhibitory Assay; type: biochemical
T1 sequence (O95822 40-493): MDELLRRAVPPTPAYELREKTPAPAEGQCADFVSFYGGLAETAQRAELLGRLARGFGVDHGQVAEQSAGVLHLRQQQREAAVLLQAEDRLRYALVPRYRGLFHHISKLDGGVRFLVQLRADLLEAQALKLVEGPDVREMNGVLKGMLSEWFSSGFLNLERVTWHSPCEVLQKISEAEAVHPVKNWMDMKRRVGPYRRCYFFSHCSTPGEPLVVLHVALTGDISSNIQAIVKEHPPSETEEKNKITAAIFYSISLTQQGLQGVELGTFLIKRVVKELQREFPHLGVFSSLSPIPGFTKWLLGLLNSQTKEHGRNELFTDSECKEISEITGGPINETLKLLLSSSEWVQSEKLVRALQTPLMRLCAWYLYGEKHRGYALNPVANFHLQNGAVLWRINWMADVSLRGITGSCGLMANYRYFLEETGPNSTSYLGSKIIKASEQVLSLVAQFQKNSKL
Protocol: In Vitro MCD Inhibitory Assay:
The conversion of […] was assayed using a modified protocol as previously described by Kim, Y. S. and Kolattukudy, P. E. in 1978 (Arch. Biochem. Biophys 190:585 (1978)). As shown in eq. 1-3, the establishment of the kinetic equilibrium between malate/NAD and oxaloacetate/NADH was catalyzed by malic dehydrogenase (eq. 2). […] The accumulation of NADH can be continuously followed by monitoring the increase of fluorescence emission at 460 nm on a fluorescence plate reader. The fluorescence plate reader was calibrated using the authentic acetyl-CoA from Sigma. For a typical 96-well plate assay, the increase in the fluorescence emission (λex=360 nm, λem=460 nm, for NADH) in each well was used to calculate the initial velocity of hMCD. Each 50 μL assay contained 10 mM phosphate buffered saline (Sigma), pH 7.4, 0.05% Tween-20, 25 mM K2HPO4—KH2PO4 (Sigma), 2 mM Malate (Sigma), 2 mM NAD (Boehringer Mannheim), 0.786 units of MD (Roche Chemicals), 0.028 unit of CS (Roche Chemicals), 5-10 nM hMCD, and varying amounts of MCA substrate. Assays were initiated by the addition of MCA, and the rates were corrected for the background rate determined in the absence of hMCD.

[2] = test system: Isolated Working Rat Hearts; assay: Glucose oxidation in isolated working rat hearts; set-up: unit not given here; details: DMSO control
Protocol: Isolated Working Rat Heart Assay Protocol
Isolated working hearts from male Sprague-Dawley rats (300-350 g) are subjected to a 60-minute aerobic perfusion period. The working hearts are perfused with 95% O2, 5% CO2 with a modified Krebs-Henseleit solution containing 5 mM glucose; 100 μU/mL insulin; 3% fatty acid-free BSA; 2.5 mM free Ca^2+, and 0.4 to 1.2 mmol/L palmitate (Kantor et al., Circulation Research 86:580-588(2000)). The test compound is added 5 minutes before the perfusion period. DMSO (0.05%) is used as control.
Measurement of Glucose Oxidation Rates
Samples were taken at 10-minute intervals for measurements of experimental parameters. Glucose oxidation rates are determined by the quantitative collection of ^14CO2 produced by hearts perfused with buffer containing [U14]-Glucose (R. Barr and G. Lopaschuk, in “Measurement of cardiovascular function”, McNeill, J. H. ed., Chapter 2, CRC press, New York (1997)). After the perfusion, the ^14CO2 from the perfusae is subsequently released by injecting 1 mL of perfusate into sealed test tube containing 1 mL of 9N H2SO4. The tube was sealed with a rubber stopper attached to a scintillation vial containing a piece of filter papers saturated with 300 μl of hyamine hydroxide. The scintillation vials with filter papers were then removed and Ecolite Scintillation Fluid added. Samples were counted by standard procedures as described above. Average rates of glucose oxidation for each phase of perfusion are expressed as μmol/min/g dry wt as described above.
Rates of fatty acid oxidation are determined using the same method as described above for glucose oxidation rate measurement using [^14C]palmitate or by the quantitative collection of ^3H2O produced by hearts perfused with buffer containing [5-^3H]palmitate (R. Barr and G. Lopaschuk, in “Measurement of cardiovascular function”, McNeill, J. H. ed., Chapter 2, CRC press, New York (1997)). ^3H2O was separated from [5-^3H]palmitate by treating 0.5 mL buffer samples with 1.88 mL of a mixture of chloroform/methanol (1:2 v:v) and then adding 0.625 mL of chloroform and 0.625 mL of a 2 M KCl/HCl solution. The sample is centrifuged for 10 min and aqueous phase was removed and treated with a mixture of 1 mL of chloroform, 1 mL of methanol and 0.9 mL KCl/HCl with a ration of 1:1:0.9. The aqueous layer was then counted for total ^3H2O determination. […] Average rates of fatty acid oxidation for each phase of perfusion are expressed as nmol/min/g dry wt after taking consideration the dilution factor. Active compounds are characterized by an increase in glucose oxidation and/or decrease in fatty acid oxidation as compared to the control experiments (DMSO). The compounds that caused statistically significant increases in glucose oxidation and/or decrease in fatty acid oxidation are considered to be active. Statistical significance was calculated using the Student's t test for paired or unpaired samples, as appropriate. The results with P<0.05 are considered to be statistically significant.

breast carcinoma cells = details: cited from earlier work
CPT-I muscle isoform = details: muscle isoform of CPT-I; read-out: IC50 of malonyl-CoA inhibition; cited from earlier work
CPT-I liver isoform = details: liver isoform of CPT-I; read-out: IC50 of malonyl-CoA inhibition; cited from earlier work

SMILES | Ki ([1]; Table 1, MCD inhibition) | other results
COc1ccc(NC(=NC#N)Nc2ccc3nc(S)sc3c2)cc1 [CBM-000302018] | 133 nM | 
N#C/N=C(\Nc1ccc(OC(F)(F)F)cc1)Nc1ccc2nc(S)sc2c1 [CBM-000302047, N-cyano-N′-(2-mercapto-benzothiazol-6-yl)-N″-(4-trifluoromethoxy-phenyl)guanidine] | 242 nM | 
CCCCOc1ccc(NC(=NC#N)Nc2ccc3nc(S)sc3c2)cc1 [CBM-000302048] | 35.1 nM | 
CCOc1ccc(NC(=NC#N)Nc2ccc3nc(S)sc3c2)cc1 [CBM-000302049] | 448 nM | 
CCCN(/C(=N/C#N)Nc1ccccc1)c1ccc2nc(S)sc2c1 [CBM-000302051] | 5.6 nM | 
CCCN(C(=NC#N)Nc1ccc(OC(F)(F)F)cc1)c1ccc2nc(S)sc2c1 [CBM-000302052] | 67.1 nM | Ki ([1]; Table 2, MCD inhibition): 67.1 nM; GOX [2]: 131
COC(=O)c1ccc(NC(=NC#N)N(CC(C)C)c2ccc3nc(S)sc3c2)cc1 [CBM-000302073] | 4.7 nM | 
CC(C)CN(C(=NC#N)Nc1ccc(C(F)(F)F)cc1)c1ccc2nc(S)sc2c1 [CBM-000302076] | 82.4 nM | 
CC(C)CN(C(=NC#N)Nc1ccc(C(=O)O)cc1)c1ccc2nc(S)sc2c1 [CBM-000302088] | 0.3 nM | 
CCN(/C(=N/C#N)Nc1ccc(C(F)(F)F)cc1)c1ccc2nc(S)sc2c1 [CBM-000302107, N-cyano-N′-ethyl-N′-(2-mercapto-benzothiazol-6-yl)-N″-(4-trifluoromethyl-phenyl)guanidine] | 1.7 nM | Ki ([1]; Table 2, MCD inhibition): 1.7 nM; GOX [2]: 290
CCN(C(=NC#N)Nc1ccc(C(N)=O)cc1)c1ccc2nc(S)sc2c1 [CBM-000302189] | 2.8 nM | Ki ([1]; Table 2, MCD inhibition): 2.8 nM; GOX [2]: 96
CCN(C(=NC#N)Nc1ccc(C(=O)NCC(C)C)cc1)c1ccc2nc(S)sc2c1 [CBM-000302243] | 24.2 nM | 
CCCCNC(=O)c1ccc(NC(=NC#N)N(CC)c2ccc3nc(S)sc3c2)cc1 [CBM-000302244] | 5.6 nM | Ki ([1]; Table 2, MCD inhibition): 5.6 nM; GOX [2]: 152
CCN(C(=NC#N)NCc1ccc(C(F)(F)F)cc1)c1ccc2nc(S)sc2c1 [CBM-000302290] | 82.4 nM | 
CC(C)N(/C(=N/C#N)Oc1ccccc1)c1ccc2nc(S)sc2c1 [CBM-000302339, 3-Cyano-1-isopropyl-1-(2-mercapto-benzothiazol-6-yl)-2-phenyl-isourea] | 5.9 nM | 
CCCCCCCCCCCCCCOc1ccc(C(=O)O)o1 [TOFA, 5-(tetradecyloxy)-2-furoic acid] |  | malonyl-CoA level (breast carcinoma cells): 60 % of the control
CC(C)(COP(=O)(O)OP(=O)(O)OC[C@H]1O[C@@H](n2cnc3c(N)ncnc32)[C@H](O)[C@@H]1OP(=O)(O)O)[C@@H](O)C(=O)NCCC(=O)NCCSC(=O)CC(=O)O [malonyl-CoA] |  | IC50 (CPT-I muscle isoform): 30 nM; IC50 (CPT-I liver isoform): 2500 nM

The remaining compounds from weak to strong by Ki ([1]; Table 1, MCD inhibition), led by results:

Ki ([1]; Table 1, MCD inhibition) | SMILES | other results
320 nM | CC(C)CN(C(=NC#N)Nc1cccc(C(F)(F)F)c1)c1ccc2nc(S)sc2c1 [CBM-000302115] | 
210 nM | CCCCN(C(=NC#N)Nc1cccc(C(F)(F)F)c1)c1ccc2nc(S)sc2c1 [CBM-000302114] | 
110 nM | CCCCN(/C(=N/C#N)Nc1cccnc1)c1ccc2nc(S)sc2c1 [CBM-000302113] | 
49.5 nM | CCN(C(=NC#N)NCc1ccc(OC(F)(F)F)cc1)c1ccc2nc(S)sc2c1 [CBM-000302291] | 
22.5 nM | CC(C)CN(C(=NC#N)Nc1ccc(OC(F)(F)F)cc1)c1ccc2nc(S)sc2c1 [CBM-000302065] | 
15.2 nM | CCCN(C(=NC#N)Nc1ccc(OC)cc1)c1ccc2nc(S)sc2c1 [CBM-000302050] | 
7.2 nM | CCCN(/C(=N/C#N)Nc1ccccc1)c1ccc2nc(S)sc2c1 [CBM-000302043] | 
7.1 nM | COc1ccc(NC(=NC#N)N(CC(C)C)c2ccc3nc(S)sc3c2)cc1 [CBM-000302064] | 
3.5 nM | CCCN(C(=NC#N)Nc1ccc(C(F)(F)F)cc1)c1ccc2nc(S)sc2c1 [CBM-000302075] | Ki ([1]; Table 2, MCD inhibition): 3.5 nM; GOX [2]: 230
2 nM | CN(C(=NC#N)Nc1ccc(C(F)(F)F)cc1)c1ccc2nc(S)sc2c1 [CBM-000302167] | Ki ([1]; Table 2, MCD inhibition): 2 nM; GOX [2]: 239
1.5 nM | CCCN(C(=NC#N)Nc1ccc(C(=O)O)cc1)c1ccc2nc(S)sc2c1 [CBM-000302112] | 
